In PubChem BioAssay (NCI):
Where “and” joins values, the source holds several entries; their conditions need not be identical. Equal values may be shown once.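 Results reflect a 48-hour exposure of cells in 96-well plates to compound at five concentrations. Abbreviation: GI50, concentration required for 50% inhibition of growth. TGI is the concentration that stops growth completely.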

Assays:
Assay in all cases: NCI anticancer screen, dose series, 48 h
BT-549 breast = system: BT-549 breast
HOP-62 NSCLC = system: HOP-62 NSCLC
IGROV1 ovarian = system: IGROV1 ovarian
KM12 colon = system: KM12 colon
MDA-MB-435 = system: MDA-MB-435
NCI-H23 lung = system: NCI-H23 lung
OVCAR-4 ovarian = system: OVCAR-4 ovarian
OVCAR-8 ovarian = system: OVCAR-8 ovarian
SK-MEL-5 melanoma = system: SK-MEL-5 melanoma
UO-31 renal = system: UO-31 renal

Structure (SMILES) | TGI (BT-549 breast) | TGI (HOP-62 NSCLC) | GI50 (IGROV1 ovarian) | TGI (IGROV1 ovarian) | GI50 (KM12 colon) | TGI (KM12 colon) | TGI (MDA-MB-435) | GI50 (NCI-H23 lung) | TGI (NCI-H23 lung) | GI50 (OVCAR-4 ovarian) | TGI (OVCAR-4 ovarian) | GI50 (OVCAR-8 ovarian) | TGI (OVCAR-8 ovarian) | GI50 (SK-MEL-5 melanoma) | TGI (SK-MEL-5 melanoma) | GI50 (UO-31 renal) | TGI (UO-31 renal) | GI50 (BT-549 breast) | GI50 (HOP-62 NSCLC) | GI50 (MDA-MB-435)
O=C(Nc1ccc(Cl)cc1)NS(=O)(=O)c1ccc2c(c1)CCC2 | > 100 µM | > 100 µM | 4.37 µg/mL | 94.3 µM and 18.7 µg/mL | 19.1 µg/mL | 98.9 µM and 40.2 µg/mL | 48.3 µM | 15.6 µg/mL | > 56 µM and 36.3 µg/mL | 37.9 µg/mL | > 100 µM and 88.1 µg/mL | 18.8 µg/mL | > 100 µM and 44.2 µg/mL | 20.6 µg/mL | > 74 µM and 40 µg/mL | 21.5 µg/mL | > 76.3 µM and 42 µg/mL | – | – | –
Cc1nc2c(cnn2-c2ccnc3c(C(F)(F)F)cccc23)c(=O)o1 | > 100 µM | > 100 µM | > 100 µM | > 100 µM | > 100 µM | > 100 µM | > 100 µM | > 100 µM | > 100 µM | > 100 µM | > 100 µM | > 100 µM | > 100 µM | > 100 µM | > 100 µM | > 100 µM | > 100 µM | > 100 µM | > 100 µM | > 100 µM
COc1ccc(NC(=O)c2ccc(NC3=C(Cl)C(=O)N(Cc4ccccc4)C3=O)cc2)cc1 | 26.2 µM | 32.6 µM | 1.5 µM | 3.93 µM | 16.8 µM | 38.2 µM | 18.3 µM | 8.38 µM | 30 µM | 3.01 µM | 8.35 µM | 3.84 µM | 18.2 µM | 10 µM | 32.1 µM | 2.66 µM | 11.3 µM | 8.27 µM | 17.1 µM | 5.64 µM
COC1CC(OC2OC(CO)C(O)C(O)C2O)/C(=C\C#N)C(O)C1OC (configuration not stated) | > 100 µM | > 100 µM | – | > 100 µM | – | > 100 µM | > 100 µM | – | > 100 µM | – | > 100 µM | – | > 100 µM | – | > 100 µM | – | > 100 µM | – | – | –
C=C1C(=O)OC(CCCCCCCC)C1C(=O)O (configuration not stated) | 26.6 µM | 39.1 µM | 21.8 µM | 48.3 µM | 18.3 µM | 34.4 µM | 40.4 µM | 14.2 µM | 29.2 µM | 15.3 µM | 31.8 µM | 19.4 µM | 45.9 µM | 16.1 µM | 29.9 µM | 11.7 µM | 25.6 µM | 12.6 µM | 20.5 µM | 17.6 µM
COc1c(O)c2ccccc2c2cc(O)ccc12 | 7.04 µM | 31.3 µM | – | 21.6 µM | – | 25.7 µM | 2.3 µM | – | 10.6 µM | – | 22.8 µM | – | 15.4 µM | – | 5.59 µM | – | 11.4 µM | – | – | –
O=P(O)(O)OC1C(OP(=O)(O)O)C(OP(=O)(O)O)C(OP(=O)(O)O)C(OP(=O)(O)O)C1OP(=O)(O)O (configuration not stated) | > 2000 µM | > 2000 µM | > 2000 µM | > 2000 µM | > 1190 µM | > 2000 µM | > 2000 µM | > 2000 µM | > 2000 µM | > 100 µM | > 2000 µM | > 2000 µM | > 2000 µM | > 1560 µM | > 2000 µM | > 2000 µM | > 2000 µM | > 1690 µM | > 2000 µM | > 1770 µM
COc1c2occc2c(OC)c2c(=O)c(S(=O)(=O)NC(=O)Nc3ccc(Cl)cc3)coc12 | > 10 µM | > 10 µM | – | > 10 µM | – | > 10 µM | > 10 µM | – | > 10 µM | – | > 10 µM | – | > 10 µM | – | > 10 µM | – | > 10 µM | – | – | –
CC1CN(CCO)CC(C)O1 (configuration not stated) | > 100 µM | > 100 µM | – | > 100 µM | – | > 100 µM | > 100 µM | – | > 100 µM | – | > 100 µM | – | > 100 µM | – | > 100 µM | – | > 100 µM | – | – | –
Cc1ncc(C(=O)Nc2ccc(CN3CCN(C)CC3)c(C(F)(F)F)c2)cc1C#Cc1c(N)ncc2ccc(C#N)cc12 | 11.2 µM | 11.2 µM | 0.111 µM | 4 µM | 0.005 µM | 2.09 µM | 3.31 µM | 0.936 µM | 8.58 µM | 0.975 µM | 11 µM | 4.77 µM | 21.2 µM | 1.1 µM | 8.59 µM | 1.26 µM | 4.99 µM | 2.71 µM | 0.988 µM | 0.163 µM
CC[C@]1(O)C[C@@H]2CN(Cc3c([nH]c4ccccc34)[C@@](C(=O)OC)(c3cc4c(cc3OC)N(C)[C@H]3[C@@](O)(C(=O)OC)[C@H](OC(C)=O)[C@]5(CC)[C@@H]6C[C@@H]6CN6CC[C@]43[C@@H]65)C2)C1 | > 4.38 µM | > 4.38 µM | 0.452 µM | > 4.38 µM | 0.0408 µM | > 4.38 µM | 0.0235 µM | 0.195 µM | > 4.38 µM | 0.666 µM | > 4.38 µM | 0.318 µM | > 4.38 µM | 0.119 µM | 1.85 µM | > 3.59 µM | > 4.38 µM | 0.365 µM | 0.153 µM | 0.00612 µM
